Measurements reported in US12539292B2, “BRM targeting compounds and associated methods of use” (Arvinas Operations, Inc., priority 2018, dated 2026).
Where two headings read alike, the source gives them in different places.

Biological target: T1, BRM (Homo sapiens, UniProt P51531)
T1 construct: In-Cell Western Screen of BRM Degradation in SW1573 Cells; endogenous in cells; host or cells: SW1573
Assay: In-cell Western screen of BRM degradation in SW1573 cells (Dmax and DC50)
Assay type: cell-based
Details: for Dmax: SW1573, % degraded, when tested at the top concentration of between 0.3 and 10 μM, read-out: BRM Dmax (%); for DC50: read-out: BRM DC50
Procedure, shortened: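 After adhering overnight, cells received compound for 18-20 hours. They were then washed in cold DPBS, fixed with 4% PFA for 20 min and permeabilized for 30 min. Blocking and fluorescent secondary staining followed before imaging.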

T1 sequence (P51531 whole entry): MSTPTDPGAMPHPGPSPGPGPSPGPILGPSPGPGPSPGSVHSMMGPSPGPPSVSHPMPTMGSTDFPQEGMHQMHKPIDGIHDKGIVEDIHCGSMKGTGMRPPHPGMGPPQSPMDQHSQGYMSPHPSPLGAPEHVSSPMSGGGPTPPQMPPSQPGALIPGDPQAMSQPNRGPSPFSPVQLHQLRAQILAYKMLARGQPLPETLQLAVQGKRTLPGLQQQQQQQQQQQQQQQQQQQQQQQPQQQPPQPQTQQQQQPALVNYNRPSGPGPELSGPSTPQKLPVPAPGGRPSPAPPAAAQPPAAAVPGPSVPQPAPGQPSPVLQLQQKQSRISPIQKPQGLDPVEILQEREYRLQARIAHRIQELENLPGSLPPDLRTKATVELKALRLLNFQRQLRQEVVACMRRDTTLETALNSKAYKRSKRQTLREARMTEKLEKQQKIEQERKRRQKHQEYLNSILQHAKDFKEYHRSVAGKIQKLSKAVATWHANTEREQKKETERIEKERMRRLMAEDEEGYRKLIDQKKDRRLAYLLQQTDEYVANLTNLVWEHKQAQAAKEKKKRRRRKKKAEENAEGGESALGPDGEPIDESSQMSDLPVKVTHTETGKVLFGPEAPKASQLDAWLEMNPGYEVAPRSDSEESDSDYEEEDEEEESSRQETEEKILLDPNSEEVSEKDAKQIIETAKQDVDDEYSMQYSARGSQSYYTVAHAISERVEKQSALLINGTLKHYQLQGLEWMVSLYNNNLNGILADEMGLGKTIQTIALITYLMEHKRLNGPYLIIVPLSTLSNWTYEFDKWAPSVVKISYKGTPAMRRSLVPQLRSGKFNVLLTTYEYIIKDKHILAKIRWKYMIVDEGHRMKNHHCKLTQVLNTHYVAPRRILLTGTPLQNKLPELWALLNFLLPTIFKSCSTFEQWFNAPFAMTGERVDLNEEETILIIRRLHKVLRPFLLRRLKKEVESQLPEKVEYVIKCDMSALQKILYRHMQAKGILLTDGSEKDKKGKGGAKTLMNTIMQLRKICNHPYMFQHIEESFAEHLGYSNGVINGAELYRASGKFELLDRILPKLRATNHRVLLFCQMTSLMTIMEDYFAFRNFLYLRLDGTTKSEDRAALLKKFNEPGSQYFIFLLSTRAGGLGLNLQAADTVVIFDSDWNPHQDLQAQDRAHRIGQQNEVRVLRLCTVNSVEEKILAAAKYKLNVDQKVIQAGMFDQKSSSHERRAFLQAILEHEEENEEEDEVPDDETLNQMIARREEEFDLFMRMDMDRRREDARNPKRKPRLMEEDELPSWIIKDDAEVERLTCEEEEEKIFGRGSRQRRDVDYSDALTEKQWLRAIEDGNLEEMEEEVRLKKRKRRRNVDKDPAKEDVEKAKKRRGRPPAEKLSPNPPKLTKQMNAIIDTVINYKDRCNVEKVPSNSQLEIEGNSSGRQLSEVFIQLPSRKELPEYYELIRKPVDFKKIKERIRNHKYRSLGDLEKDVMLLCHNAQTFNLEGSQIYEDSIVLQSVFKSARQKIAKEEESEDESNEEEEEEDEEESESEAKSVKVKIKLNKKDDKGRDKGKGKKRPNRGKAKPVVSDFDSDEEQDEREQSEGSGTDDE

Dmax [%] | DC50 (target protein degradation) [nM] | Compound | DC50 (degradation of BRM) [nM]
– | – | CC(C)[C@H](C(=O)N1C[C@H](O)C[C@H]1C(=O)N[C@@H](C)c1ccc(C2CC2(F)F)cc1)c1cc(OCCN2CCC(O[C@H]3C[C@H](Oc4cc(N5C6CCC5CN(c5cc(-c7ccccc7O)nnc5N)C6)ccn4)C3)CC2)no1 (stereo partly drawn) [compound 438, (2S,4R)-1-((2S)-2-(3-(2-(4-((1r,3S)-3-((4-(3-(3-amino-6-(2-hydroxyphenyl)pyridazin-4-yl)-3,8-diazabicyclo[3.2.1]octan-8-yl)pyridin-2-yl)oxy)cyclobutoxy)piperidin-1-yl)ethoxy)isoxazol-5-yl)-3-methylbutanoyl)-N-((1S)-1-(4-(2,2-difluorocyclopropyl)phenyl)ethyl)-4-hydroxypyrrolidine-2-carboxamide] | > 30
– | – | CC(C)[C@@H](C(=O)N1C[C@H](O)C[C@H]1C(=O)N[C@@H](C)c1ccc(C2CC2(F)F)cc1)c1cc(OCCN2CCC(O[C@H]3C[C@H](Oc4cc(N5C6CCC5CN(c5cc(-c7ccccc7O)nnc5N)C6)ccn4)C3)CC2)no1 (stereo partly drawn) [compound 439, (2S,4R)-1-((2R)-2-(3-(2-(4-((1r,3R)-3-((4-(3-(3-amino-6-(2-hydroxyphenyl)pyridazin-4-yl)-3,8-diazabicyclo[3.2.1]octan-8-yl)pyridin-2-yl)oxy)cyclobutoxy)piperidin-1-yl)ethoxy)isoxazol-5-yl)-3-methylbutanoyl)-N-((1S)-1-(4-(2,2-difluorocyclopropyl)phenyl)ethyl)-4-hydroxypyrrolidine-2-carboxamide] | > 30
– | – | Cc1ncsc1-c1cnc([C@@H](C)NC(=O)[C@@H]2C[C@@H](O)CN2C(=O)[C@H](c2cc(OCCN3CCC(O[C@H]4C[C@H](Oc5cc(N6C7CCC6CN(c6cc(-c8ccccc8O)nnc6N)C7)ccn5)C4)CC3)no2)C(C)C)cn1 [compound 440, (2S,4R)-1-((2S)-2-(3-(2-(4-((1r,3S)-3-((4-(3-(3-amino-6-(2-hydroxyphenyl)pyridazin-4-yl)-3,8-diazabicyclo[3.2.1]octan-8-yl)pyridin-2-yl)oxy)cyclobutoxy)piperidin-1-yl)ethoxy)isoxazol-5-yl)-3-methylbutanoyl)-4-hydroxy-N-((R)-1-(5-(4-methylthiazol-5-yl)pyrazin-2-yl)ethyl)pyrrolidine-2-carboxamide] | > 30
– | – | Cc1ncsc1-c1ccc([C@@H](C)NC(=O)[C@@H]2C[C@@H](O)CN2C(=O)[C@H](c2cc(OCCN3CCC(O[C@H]4C[C@H](Oc5cc(N6C7CCC6CN(c6cc(-c8ccccc8O)nnc6N)C7)ccn5)C4)CC3)no2)C(C)C)nn1 [compound 442, (2S,4R)-1-((2S)-2-(3-(2-(4-((1r,3S)-3-((4-(3-(3-amino-6-(2-hydroxyphenyl)pyridazin-4-yl)-3,8-diazabicyclo[3.2.1]octan-8-yl)pyridin-2-yl)oxy)cyclobutoxy)piperidin-1-yl)ethoxy)isoxazol-5-yl)-3-methylbutanoyl)-4-hydroxy-N-((R)-1-(6-(4-methylthiazol-5-yl)pyridazin-3-yl)ethyl)pyrrolidine-2-carboxamide] | > 30
– | – | Cc1ncsc1-c1ccc([C@@H](C)NC(=O)[C@@H]2C[C@@H](O)CN2C(=O)[C@@H](c2cc(OCCN3CCC(O[C@H]4C[C@H](Oc5cc(N6C7CCC6CN(c6cc(-c8ccccc8O)nnc6N)C7)ccn5)C4)CC3)no2)C(C)C)nn1 [compound 443, (2S,4R)-1-((2R)-2-(3-(2-(4-((1r,3R)-3-((4-(3-(3-amino-6-(2-hydroxyphenyl)pyridazin-4-yl)-3,8-diazabicyclo[3.2.1]octan-8-yl)pyridin-2-yl)oxy)cyclobutoxy)piperidin-1-yl)ethoxy)isoxazol-5-yl)-3-methylbutanoyl)-4-hydroxy-N-((R)-1-(6-(4-methylthiazol-5-yl)pyridazin-3-yl)ethyl)pyrrolidine-2-carboxamide] | > 30
> 75 | – | Cc1ncsc1-c1ccc([C@H](C)NC(=O)[C@@H]2C[C@@H](O)CN2C(=O)[C@H](c2cc(OCCC3CCN([C@H]4C[C@H](CN5CCOC6(CCN(c7cc(-c8ccccc8O)nnc7N)CC6)C5)C4)CC3)no2)C(C)C)cc1 [compound 444, (2S,4R)-1-((S)-2-(3-(2-(1-((1r,3S)-3-((9-(3-amino-6-(2-hydroxyphenyl)pyridazin-4-yl)-1-oxa-4,9-diazaspiro[5.5]undecan-4-yl)methyl)cyclobutyl)piperidin-4-yl)ethoxy)isoxazol-5-yl)-3-methylbutanoyl)-4-hydroxy-N-((S)-1-(4-(4-methylthiazol-5-yl)phenyl)ethyl)pyrrolidine-2-carboxamide] | < 2.5
> 75 | – | Cc1ncsc1-c1ccc([C@H](C)NC(=O)[C@@H]2C[C@@H](O)CN2C(=O)[C@@H](c2cc(OCCC3CCN([C@H]4C[C@H](CN5CCOC6(CCN(c7cc(-c8ccccc8O)nnc7N)CC6)C5)C4)CC3)no2)C(C)C)cc1 [compound 445, (2S,4R)-1-((R)-2-(3-(2-(1-((1r,3R)-3-((9-(3-amino-6-(2-hydroxyphenyl)pyridazin-4-yl)-1-oxa-4,9-diazaspiro[5.5]undecan-4-yl)methyl)cyclobutyl)piperidin-4-yl)ethoxy)isoxazol-5-yl)-3-methylbutanoyl)-4-hydroxy-N-((S)-1-(4-(4-methylthiazol-5-yl)phenyl)ethyl)pyrrolidine-2-carboxamide] | < 2.5
> 75 | < 2.5 | Cc1ncsc1-c1ccc([C@H](C)NC(=O)[C@@H]2C[C@@H](O)CN2C(=O)[C@H](c2cc(OCCC3CCN(C(=O)[C@H]4C[C@@H](CN5CCC([C@H](C)n6cc(-c7cc(-c8ccccc8O)nnc7N)cn6)CC5)C4)CC3)no2)C(C)C)cc1 [compound 449, (2S,4R)-1-((S)-2-(3-(2-(1-((1R,3R)-3-((4-((S)-1-(4-(3-amino-6-(2-hydroxyphenyl)pyridazin-4-yl)-1H-pyrazol-1-yl)ethyl)piperidin-1-yl)methyl)cyclobutane-1-carbonyl)piperidin-4-yl)ethoxy)isoxazol-5-yl)-3-methylbutanoyl)-4-hydroxy-N-((S)-1-(4-(4-methylthiazol-5-yl)phenyl)ethyl)pyrrolidine-2-carboxamide] | –
> 75 | 10 to 30 | Cc1ncsc1-c1ccc([C@H](C)NC(=O)[C@@H]2C[C@@H](O)CN2C(=O)[C@@H](c2cc(OCCC3CCN(C(=O)[C@H]4C[C@@H](CN5CCC([C@H](C)n6cc(-c7cc(-c8ccccc8O)nnc7N)cn6)CC5)C4)CC3)no2)C(C)C)cc1 [compound 450, (2S,4R)-1-((R)-2-(3-(2-(1-((1R,3S)-3-((4-((S)-1-(4-(3-amino-6-(2-hydroxyphenyl)pyridazin-4-yl)-1H-pyrazol-1-yl)ethyl)piperidin-1-yl)methyl)cyclobutane-1-carbonyl)piperidin-4-yl)ethoxy)isoxazol-5-yl)-3-methylbutanoyl)-4-hydroxy-N-((S)-1-(4-(4-methylthiazol-5-yl)phenyl)ethyl)pyrrolidine-2-carboxamide] | –
> 75 | < 2.5 | Cc1ncsc1-c1ccc([C@H](C)NC(=O)[C@@H]2C[C@@H](O)CN2C(=O)[C@H](c2cc(OCCC3CCN(C(=O)[C@H]4C[C@@H](CN5CCC([C@@H](C)n6cc(-c7cc(-c8ccccc8O)nnc7N)cn6)CC5)C4)CC3)no2)C(C)C)cc1 [compound 451, (2S,4R)-1-((S)-2-(3-(2-(1-((1S,3R)-3-((4-((R)-1-(4-(3-amino-6-(2-hydroxyphenyl)pyridazin-4-yl)-1 H-pyrazol-1-yl)ethyl)piperidin-1-yl)methyl)cyclobutane-1-carbonyl)piperidin-4-yl)ethoxy)isoxazol-5-yl)-3-methylbutanoyl)-4-hydroxy-N-((S)-1-(4-(4-methylthiazol-5-yl)phenyl)ethyl)pyrrolidine-2-carboxamide] | –

Compound | Dmax [%] | DC50 (target protein degradation) [nM] | DC50 (degradation of BRM) [nM]
Cc1nccn1-c1ccc([C@H](C)NC(=O)[C@@H]2C[C@@H](O)CN2C(=O)[C@@H](c2cc(N3CCN(CC4CCN(C[C@H]5C[C@H](Oc6cc(N7C8CCC7CN(c7cc(-c9ccccc9O)nnc7N)C8)ccn6)C5)CC4)CC3)no2)C(C)C)cc1 [compound 437, (2S,4R)-1-((2R)-2-(3-(4-((1-(((1r,3r)-3-((4-(3-(3-amino-6-(2-hydroxyphenyl)pyridazin-4-yl)-3,8-diazabicyclo[3.2.1]octan-8-yl)pyridin-2-yl)oxy)cyclobutyl)methyl)piperidin-4-yl)methyl)piperazin-1-yl)isoxazol-5-yl)-3-methylbutanoyl)-4-hydroxy-N-((S)-1-(4-(2-methyl-1H-imidazol-1-yl)phenyl)ethyl)pyrrolidine-2-carboxamide] | > 75 | – | < 2.5
Cc1ncsc1-c1cnc([C@@H](C)NC(=O)[C@@H]2C[C@@H](O)CN2C(=O)[C@@H](c2cc(OCCN3CCC(O[C@H]4C[C@H](Oc5cc(N6C7CCC6CN(c6cc(-c8ccccc8O)nnc6N)C7)ccn5)C4)CC3)no2)C(C)C)cn1 [compound 441, (2S,4R)-1-((2R)-2-(3-(2-(4-((1r,3R)-3-((4-(3-(3-amino-6-(2-hydroxyphenyl)pyridazin-4-yl)-3,8-diazabicyclo[3.2.1]octan-8-yl)pyridin-2-yl)oxy)cyclobutoxy)piperidin-1-yl)ethoxy)isoxazol-5-yl)-3-methylbutanoyl)-4-hydroxy-N-((R)-1-(5-(4-methylthiazol-5-yl)pyrazin-2-yl)ethyl)pyrrolidine-2-carboxamide] | > 75 | – | 2.5 to 10
Cc1ncsc1-c1ccc([C@H](C)NC(=O)[C@@H]2C[C@@H](O)CN2C(=O)C(c2cc(OCCN3[C@H](C)C[C@H](O[C@H]4C[C@H](Oc5cc(N6C7CCC6CN(c6cc(-c8ccccc8O)nnc6N)C7)ccn5)C4)C[C@@H]3C)no2)C(C)C)cn1 (stereo partly drawn) [compound 448, (2S,4R)-1-(2-(3-(2-((2S,4S,6R)-4-((1r,3R)-3-((4-(3-(3-amino-6-(2-hydroxyphenyl)pyridazin-4-yl)-3,8-diazabicyclo[3.2.1]octan-8-yl)pyridin-2-yl)oxy)cyclobutoxy)-2,6-dimethylpiperidin-1-yl)ethoxy)isoxazol-5-yl)-3-methylbutanoyl)-4-hydroxy-N-((S)-1-(6-(4-methylthiazol-5-yl)pyridin-3-yl)ethyl)pyrrolidine-2-carboxamide] | > 75 | < 2.5 | –
